According to article PMC12475274, “Harnessing indole scaffolds to identify small-molecule IRE1α inhibitors modulating XBP1 mRNA splicing” (Nature Communications, 2025):
“And” between values parts separate entries of the source, which are not always exact repeats. Equal values may be shown once. “Also recorded” adds a separate entry of the source. Read-outs that look alike come from different tables or passages of the source. Values belong to the molecule of their own block, whether it stands above or below them.

What was measured:
[1] = biological target: T1, phosphorylated IRE1α (p-IRE1α) (Homo sapiens, UniProt O75460); assay: FRET-based IRE1α RNase activity assay, phosphorylated IRE1α; format: biochemical
T1 construct: Human IRE1α kinase and RNase domain (residues 547–977) was subcloned into pLIB plasmid; His tag (with TEV cleavage site) (N, cleaved yes); made in house; host or cells: Sf9 insect cells, baculovirus (Bac-to-Bac)
T1 sequence (O75460 547-977): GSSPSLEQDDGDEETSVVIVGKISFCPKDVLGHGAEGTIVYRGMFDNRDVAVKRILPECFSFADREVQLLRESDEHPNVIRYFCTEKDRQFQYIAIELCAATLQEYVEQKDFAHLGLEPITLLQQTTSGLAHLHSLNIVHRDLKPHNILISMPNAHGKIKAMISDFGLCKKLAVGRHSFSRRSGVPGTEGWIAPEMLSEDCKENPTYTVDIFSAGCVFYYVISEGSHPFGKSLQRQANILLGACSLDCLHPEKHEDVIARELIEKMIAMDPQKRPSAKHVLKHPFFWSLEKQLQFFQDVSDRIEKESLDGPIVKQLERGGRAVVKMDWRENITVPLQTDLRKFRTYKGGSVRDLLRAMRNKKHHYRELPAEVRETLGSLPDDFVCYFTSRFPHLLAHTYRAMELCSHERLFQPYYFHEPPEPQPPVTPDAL
Protocol: (§1) Human IRE1α kinase and RNase domain (residues 547–977) was subcloned into pLIB plasmid with a His tag and TEV cleavage site, and expressed using Bac-to-Bac expression system. The primers used are listed in Supplementary Table S3. The protein purification was performed following established procedures. Briefly, Sf9 cells were infected with baculovirus and incubated at 27 °C 110 rpm for 72 h. The cells were collected by centrifugation at 4000 × g for 15 min and the cell pellet was resuspended in lysis buffer (50 mM HEPES pH 7.5, 300 mM NaCl, 10% glycerol, 1 mM MgCl2, 1 mM TCEP, 5 mM imidazole), then supplemented with 1:10,000 benzonase (Sigma, E1014), 1 tablet/25 mL […]™ Protease Inhibitor Cocktail tablets (Sigma, S8830) and 1 mM PMSF before lysed by sonication at 4 °C. […] The protein elution was incubated with TEV protease to remove His tag at 4 °C overnight. Then the sample was diluted 1:6 in buffer (50 mM HEPES pH 7.5, 1 mM TCEP, 5% glycerol) and loaded onto a 5 mL pre-packaged Q HP anion exchange column (Cytiva, HiTrap Q HP) pre-equilibrated with QA buffer (50 mM HEPES pH 7.5, 50 mM NaCl, 1 mM TCEP, 5% glycerol). The unphosphorylated and phosphorylated protein was separated by eluting the protein with a very shallow gradient with 0-30% buffer QB (50 mM HEPES pH 7.5, 1 M NaCl, 1 mM TCEP, 5% glycerol) over 80 CV. Different peaks were collected separately and verified by LC-MS. The fully phosphorylated fraction was collected and further purified by size exclusion chromatography (Cytiva, HiLoad 16/600 Superdex 200 pg,) with SEC buffer (25 mM HEPES pH 7.5, 250 mM NaCl, 1 mM TCEP, 10% glycerol) and fractioned as monomeric peak. The rest protein fraction from the Q HP anion exchange column was incubated with Lambda protein phosphatase (New England BioLabs, P0753S) overnight at 4 °C, the dephosphorylation was confirmed by LC-MS. The unphosphorylated protein was further purified by size exclusion chromatography with the SEC buffer described above. The purified phosphorylated (p-IRE1α) and dephosphorylated (IRE1α) protein aliquots were stored at −80 °C for future usage.
(§2) The dual-labeled RNA substrate with a FAM at 5’ and the BHQ-1 at 3’ containing the XBP1 sequence (5′FAM-[…]-3′BHQ1) was purchased from Integrated DNA Technologies (IDT). The FRET-based IRE1α RNase activity assay was carried out in reaction buffer containing 20 mM HEPES pH 7.5, 50 mM KOAc, 1 mM MgOAc2, 1 mM DTT, 0.05% v/v TritonX-100, at a total reaction volume of 20 μL in a 384-well black plate (4514, Corning). For unphosphorylated IRE1α (IRE1α), a final concentration of 40 nM IRE1α protein and 100 nM RNA substrate was used. For phosphorylated IRE1 (p-IRE1α), a final concentration of 4 nM p-IRE1α protein and 200 nM RNA substrate was used. The indicated compound and IRE1α protein were incubated for 30 min at room temperature before the substrate was added to the reaction. The plate was then kinetically read over one hour at room temperature using a TECAN Spark plate reader. The measurement was carried out using the fluorescence top reading mode at the excitation wavelength of 485 nm and the emission wavelength of 535 nm with a 10 nm excitation and emission bandwidth. The linear part of the reaction curve was adopted and fitted with sample linear regression to obtain the slope, and the slope was adopted to reflect the reaction rate. The inhibition % was calculated by using the equation: inhibition% = 100 × (slope of DMSO control – slope of the sample)/(slope of DMSO control – slope of blank control), DMSO control: DMSO with protein and RNA substrate; Blank control: DMSO with RNA substrate. The IC50 values were calculated using the concentration-response model in GraphPad Prism 9.

[2] = biological target: T2, dephosphorylated IRE1α (547–977) (Homo sapiens, UniProt O75460); assay: FRET-based IRE1α RNase activity assay, dephosphorylated IRE1α; format: biochemical
T2 construct: Human IRE1α kinase and RNase domain (residues 547–977) was subcloned into pLIB plasmid; His tag (with TEV cleavage site) (N, cleaved yes); made in house; host or cells: Sf9 insect cells, baculovirus (Bac-to-Bac)
T2 sequence (O75460 547-977): as above
Protocol: as §1
as §2, with “9. […]” for “9.”

[3] = biological target: T3, IRE1α (Homo sapiens, UniProt O75460); assay: Differential scanning fluorimetry (DSF), IRE1α; format: binding; conditions: Supplementary Fig. 3c, replicate values
T3 construct: Human IRE1α kinase and RNase domain (residues 547–977) was subcloned into pLIB plasmid; His tag (with TEV cleavage site) (N, cleaved yes); made in house; host or cells: Sf9 insect cells, baculovirus (Bac-to-Bac)
T3 sequence (O75460 547-977): as above
Protocol: The DSF assay was performed in PBS buffer containing 2 mM DTT, in a total reaction volume of 20 µl with indicated compounds (final 1% DMSO) and the final concentration of 1 µM IRE1α protein and 5× SYPRO Orange fluorescent dye (5000× in DMSO, Sigma S5692). The melting curve was measured at a temperature range from 25 °C to 95 °C and in increments of 1 °C for 30 s using a Bio-Rad CFX96 Real-Time PCR detection system with the FRET scan mode. The melting temperature (Tm) was obtained by fitting the melting curve to Boltzmann sigmoidal in GraphPad Prism and the thermal shift (∆Tm) was calculated by using the equation: ∆Tm = Tm(compound) -Tm(DMSO).

[4] = FRET assay, RNase activity, mean (± SEM), read-out: p-IRE1α IC50
[5] = FRET assay, RNase activity, mean (± SEM), read-out: IRE1α IC50
[6] = p-IRE1a, individual replicates (n1-n3), Supplementary Fig. 2b, 2c, read-out: IC50
[7] = p-IRE1a, mean, Supplementary Fig. 2b, 2c, read-out: IC50, mean
[8] = IRE1a, individual replicates (n1-n4), Supplementary Fig. 2b, 2c, read-out: IC50
[9] = IRE1a, mean, Supplementary Fig. 2b, 2c, read-out: IC50, mean
[10] = FRET assay, source data, unit from Fig. 3, read-out: p-IRE1a IC50, individual replicates (n1-n4)
[11] = FRET assay, source data, unit from Fig. 3 / sheet Fig. 2b, read-out: IRE1a IC50, individual replicates (n1-n4)

Compound: Cc1c(CCC(=O)O)c2cc(Cl)ccc2n1C(=O)c1cccs1 [IA60]
IC50 [1, 6]: 244 nM and 461 nM and 90.7 nM | IC50 [1, 7]: 270 nM | IC50 [2, 8]: 117 nM and 90.9 nM and 105 nM | IC50 [2, 9]: 100 nM

Compound: Cc1c(CCC(=O)O)c2cc(Br)ccc2n1C(=O)c1cccs1 [IA44]
IC50 [1, 6]: 168 nM and 34.5 nM | IC50 [1, 7]: 100 nM | IC50 [2, 8]: 90 nM and 91.2 nM and 59.1 nM | IC50 [2, 9]: 80 nM

Compound: Cc1c(CCC(=O)O)c2cc(Br)ccc2n1Cc1ccccc1 [IA164]
effect on p-IRE1α RNase activity in the FRET assay [1]: did not show activity | inhibition(%) ([1]; p-IRE1a, 0.000847 μM): -3.310% and -10.444% and -6.973% and -11.312% | inhibition(%) ([1]; p-IRE1a, 0.00254 μM): -11.263% and -6.154% and -5.913% and -3.985% | inhibition(%) ([1]; p-IRE1a, 0.007621 μM): -3.888% and -1.575% and -3.262% and -6.925% | inhibition(%) ([1]; p-IRE1a, 0.022862 μM): -9.528% and -12.854% and -7.504% and -7.552% | inhibition(%) ([1]; p-IRE1a, 0.205761 μM): -14.011% and -13.481% and -9.046% and -6.299% | inhibition(%) ([1]; p-IRE1a, 0.617284 μM): -12.951% and -9.625% and -7.070% and -4.226% | inhibition(%) ([1]; p-IRE1a, 1.85185 μM): -7.504% and -4.708% and -6.877% and -5.527% | inhibition(%) ([1]; p-IRE1a, 5.55556 μM): -7.793% and -8.660% and -17.192% and -15.216% | effect on IRE1α RNase activity in the FRET assay [2]: did not show activity; also recorded: complete loss of activity | inhibition at 5.55556 µM ([2]; IRE1a, 5.55556 μM): 11.3% | inhibition(%) ([2]; IRE1a, 5.55556 μM): 18.332% and 22.563% and 19.929%

Compound: COc1ccc2c(c1)c(CCC(=O)O)c(C)n2C(=O)c1ccc2ccccc2c1 [IA034]
IRE1 ∆Tm(°C) ([3]; compound 6.25 μM): 0.1 °C and -0.04 °C | IRE1 ∆Tm(°C) ([3]; compound 12.5 μM): 0.02 °C and -0.1 °C | IRE1 ∆Tm(°C) ([3]; compound 25 μM): 0.25 °C and 0 °C | IRE1 ∆Tm(°C) ([3]; compound 50 μM): -0.02 °C and 0 °C

Compound: COc1ccc2c(c1)c(CC(=O)O)c(C)n2C(=O)c1ccc(Cl)cc1 [Indomethacin, indomethacin, reference compound]
inhibition at 50 µM ([1]; FRET assay at 50 μM, mean (± SEM), read-out: p-IRE1α inhibition%): < 30% | IRE1α inhibition% ([2]; FRET assay at 50 μM, mean (± SEM), 50 µM): < 30% | inhibition at 50 µM ([2]; FRET assay at 50 μM, mean (± SEM), read-out: IRE1α inhibition%): ≤ 50%

Results, then the molecule that gave them:

IC50 [1, 4]: 2030 nM | IC50 [2, 5]: 1270 nM
Compound: Cc1c(CCC(=O)O)c2cc(-c3ccoc3)ccc2n1C(=O)c1ccccc1 [IA138]

IC50 [1, 4]: 39400 nM | IC50 [1, 10]: 40500 nM and 47100 nM and 30600 nM | IC50 [2, 5]: 14100 nM | IC50 [2, 11]: 19600 nM and 14000 nM and 8760 nM
Compound: COc1ncc(-c2ccc3c(c2)c(CCC(=O)O)c(C)n3C(=O)c2ccccc2)c(OC)n1 [IA143]

IC50 [1, 4]: 200 nM | IC50 [1, 10]: 83 nM and 113 nM and 398 nM | IC50 [2, 5]: 170 nM | IC50 [2, 11]: 55.7 nM and 53.7 nM and 388 nM
Compound: COc1ccc(C(=O)n2c(C)c(CCC(=O)O)c3cc(OC)ccc32)cc1 [IA96]
